The target in one data set is T1, FGFR3-K650E (Homo sapiens, UniProt P22607, K650E).
T1 construct: expressed in transfected cells; host or cells: HEK 293 VNR cells
The data set is described as follows: in cellulo FGFR3 phosphorylation in HEK 293 VNR cells transfected with FGFR3-K650E (immunoprecipitation, western blot). Type of data set: cell-based. (A western blot detects proteins with antibodies after separation by electrophoresis.)

The next data set deals with FGFR3 WT (Homo sapiens, UniProt P22607). As to the kind of experiment: in vitro inhibition of FGFR3 (WT). Type of data set: biochemical.

Molecules are shown by their SMILES.

By IC50 is commonly meant the concentration needed to halve the response being measured. A higher IC50 goes with weaker potency in that assay. In general, melting point refers to the temperature of the solid-liquid transition. The term inhibition denotes the share of the control response that was lost under treatment.

FGFR3 WT, sequence (P22607 23-806): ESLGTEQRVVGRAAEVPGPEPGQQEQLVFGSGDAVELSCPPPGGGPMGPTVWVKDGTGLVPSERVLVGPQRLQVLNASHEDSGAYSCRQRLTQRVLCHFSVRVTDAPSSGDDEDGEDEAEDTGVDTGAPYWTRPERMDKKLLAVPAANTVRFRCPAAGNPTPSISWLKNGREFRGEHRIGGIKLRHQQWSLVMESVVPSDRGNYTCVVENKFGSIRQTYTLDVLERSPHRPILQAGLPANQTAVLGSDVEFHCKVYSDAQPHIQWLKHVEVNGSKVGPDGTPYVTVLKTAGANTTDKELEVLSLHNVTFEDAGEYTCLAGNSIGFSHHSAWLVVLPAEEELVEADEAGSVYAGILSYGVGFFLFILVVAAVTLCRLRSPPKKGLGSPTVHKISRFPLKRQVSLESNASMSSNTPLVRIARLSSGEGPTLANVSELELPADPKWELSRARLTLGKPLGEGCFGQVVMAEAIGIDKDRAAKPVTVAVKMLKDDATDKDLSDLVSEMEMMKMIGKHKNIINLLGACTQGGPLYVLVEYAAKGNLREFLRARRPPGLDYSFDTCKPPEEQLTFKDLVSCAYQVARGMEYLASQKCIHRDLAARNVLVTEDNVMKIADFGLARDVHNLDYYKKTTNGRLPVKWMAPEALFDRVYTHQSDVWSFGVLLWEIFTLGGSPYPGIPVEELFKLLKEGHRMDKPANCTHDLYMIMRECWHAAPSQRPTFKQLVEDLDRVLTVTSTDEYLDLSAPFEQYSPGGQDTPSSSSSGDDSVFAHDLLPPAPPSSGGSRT
T1 sequence (P22607 23-806 K650E): as the sequence (P22607 23-806) above, with K628E counted along it

Compound `COC(=O)c1c(NC(C)=O)c(-c2noc(-c3ccc(Br)cc3)n2)nn1-c1cccc(OC)c1` [Cpd 24, Methyl 4-acetamido-3-(5-(4-bromophenyl)-1,2,4-oxadiazol-3-yl)-1-(3-methoxyphenyl)-1H-pyrazole-5-carboxylate] came in with a melting point of 224 °C. This compound showed an IC50 against FGFR3-K650E of 150 nM. As for `COC(=O)c1c(NC(C)=O)c(-c2noc(-c3ccc([N+](=O)[O-])cc3)n2)nn1-c1cccc(OC)c1` [Cpd 25], the inhibition at 0.5 µM against FGFR3-K650E (HEK293, @ 500 nM, K650E) was determined as 0%. `COC(=O)c1c(NC(C)=O)c(-c2noc(-c3ccc(N(C)C)cc3)n2)nn1-c1cccc(OC)c1` [Cpd 27, Methyl 4-acetamido-3-(5-(4-(dimethylamino)phenyl)-1,2,4-oxadiazol-3-yl)-1-(3-methoxyphenyl)-1H-pyrazole-5-carboxylate] displayed a melting point of 196 °C. Regarding `COC(=O)c1c(NC(C)=O)c(-c2noc(-c3ccc([N+](=O)[O-])cc3)n2)nn1-c1cccc(-c2cn(Cc3ccccc3)nn2)c1` [Cpd 64], the IC50 at FGFR3 WT (no qualifier printed (column % in vitro inhibition)) is 2000 nM. At FGFR3 WT, `CC(=O)Nc1c(-c2noc(-c3ccc([N+](=O)[O-])cc3)n2)nn(-c2cccc(-c3cn(Cc4ccccc4)nn3)c2)c1C(=O)NCc1ccccc1` [Cpd 79] had an inhibition at 10 µM of 21% and an inhibition at 50 µM of 97%. `COC(=O)c1c(NC(C)=O)c(-c2noc(-c3ccccc3)n2)nn1-c1cccc(OC)c1` [Cpd 134, Methyl 4-acetamido-1-(3-methoxyphenyl)-3-(5-phenyl-1,2,4-oxadiazol-3-yl)-1H-pyrazole-5-carboxylate]: the melting point lay in the range of 186 to 188 °C. For the compound `COC(=O)c1c(NC(C)=O)c(-c2noc(-c3ccc([N+](=O)[O-])cc3)n2)nn1-c1cccc(OC)c1` [Example 2, Methyl 4-acetamido-1-(3-methoxyphenyl)-3-(5-(4-nitrophenyl)-1,2,4-oxadiazol-3-yl)-1H-pyrazole-5-carboxylate], the melting point amounted to 248 °C.
